# From PMC10838660, “Artificial intelligence-powered discovery of small molecules inhibiting CTLA-4 in cancer” (BJC reports, 2024)
# Legend:
# [1] = system: interaction of CTLA-4 with CD80 and CD86; experiment: Luciferase reporter assay, CTLA-4 effector Jurkat T cells with Raji antigen-presenting cells; type: cell-based, human
# From the text: We first evaluated the inhibitory impacts of the compounds against the interaction between CTLA-4 and CD80 using an amplified luminescent proximity homogeneous (Alpha)LISA assay. In this assay, a biotinylated CD80 binds to streptavidin-coated alpha donor beads, while anti-His AlphaLISA acceptor beads capture His-tagged CTLA-4. Upon binding of CD80 to CTLA-4, the donor and acceptor beads draw near, thus excitation of the donor bead leads to the release of singlet oxygen molecules. Consequently, an energy transfer cascade occurs in the acceptor beads, culminating in an intense peak of light emission at 615 nm (Fig. 1a). […] The compounds’ inhibitory activity against CTLA-4 was confirmed through a luciferase reporter assay involving 2 genetically engineered cell lines. First, we developed a CTLA-4 effector cell line using Jurkat T cells expressing human CTLA-4 and a luciferase reporter driven by a native promoter responsive to T-cell receptor (TCR)/CD28 activation. We also managed to establish an adjacent antigen-presenting cell line utilizing Raji cells, which are capable of expressing constitutively active engineered proteins on their surfaces without requiring antigens for effectivity. The Raji cells will also be able to naturally produce endogenous levels of both CD80 as well as CD86 molecules within the target APCs themselves as they transclude from one host to another. […]
# [2] = system: MC38 tumors; experiment: MC38 tumors in humanized CTLA-4 (hCTLA-4) mice; type: in vivo; settings: for development of MC38 tumors: therapeutic, A9 and D11 25 mg/kg
# From the text: (§1) In hCTLA-4 mice, the ECD of the mouse Ctla-4 gene has been replaced with the human counterpart, yet the resulting protein still interacts effectively with mouse CD80 and CD86 [42]. […] Next, we measured the mice’s levels of serum cardiac troponin I type 3 (TNNI3), a marker associated with ipilimumab-induced irAEs. We found elevated serum TNNI3 levels in mice treated with ipilimumab, anti-PD-1, or anti-PD-1 plus D11, but not in mice treated with D11 alone (Fig. 4e). It is unclear why D11 monotherapy appeared to have a protective effect in comparison with anti-PD-1 alone. We also treated 2 human cells lines, HCT116 and MDA-MB231, with D11 and 5-fluorouracil, an antimetabolite drug that is widely used for the treatment of colorectal cancer. […] Thus, it is likely that D11 is weakly toxic to tumor cells and that its antitumor effects are largely due to its regulation of the immune response.
# Using another cohort of hCTLA-4 mice inoculated with MC38 cells, we treated animals (n = 5 per group) with ipilimumab, anti-PD-1, anti-PD-1 plus D11, D11 alone, or vehicle in the same dosages as used previously. Some animals’ tumors were collected approximately 10 days after the last treatment dose, whereas for the remaining animals, the tumors were allowed to grow (Supplementary Fig. S7). […] Single-cell suspensions from tumors were sorted to obtain CD45^+ immune cells, which were then subjected to single-cell RNA sequencing (scRNAseq) and TCR sequencing. Next, the immune cell populations were compared across the samples (Fig. 5b, c). […] Another interesting observation from the scRNAseq analysis was that the differential expression of membrane-type 1 matrix metalloproteinase, which is known for its role as a key regulator in cell migration in tissues, was associated with D11 treatment. This finding could lead to a possible new mechanism of action, besides macrophage recruitment, to drive the search for anticancer compounds.
# (§2) We next investigated analogs of the 5 anti-CTLA-4 compounds for possible refinement.
# C57BL/6 mice were purchased from the Charles River Laboratories. In hCTLA-4 mice, the exons encoding for the ECD and transmembrane domains of murine CTLA-4 were replaced with the human versions. […] Tumor volumes were calculated with the formula volume = (width^2 × length)/2. Measurements were recorded every 2 to 3 days. […] For the histopathologic analysis of the internal organs harvested from mice that had been treated with therapeutic compounds or control antibodies, stained sections were prepared from the formalin-fixed tissue and were assessed in a blinded fashion.
# [3] = system: mouse tumor-infiltrating lymphocytes (TILs); experiment: IFN-γ production in mouse TILs cocultured with MC38 tumor cells; type: cell-based
# Protocol: We examined the ability of these 5 anti-CTLA-4 compounds to stimulate interferon-γ (IFN-γ) production in mouse tumor-infiltrating lymphocytes (TILs). MC38 tumors grown in C57BL/6 mice were extracted to obtain CD45^+ TILs.
# (§3) The ability of compounds to be immunostimulatory was measured by coculturing mouse-derived TILs with MC38 tumors grown in C57BL/6 mice. Tumors were digested using a Tumor Dissociation Kit (Miltenyi Biotec, 130-095-929). After cell isolation, TILs were extracted with a MagniSort Mouse CD45 isolation kit protocol (Invitrogen, 8802-6865-74). TILs were cocultured with MC38 cells for 48 h, and the expression levels of IFN-γ were detected with the AlphaLISA Mouse IFN-γ Detection Kit (PerkinElmer, AL501C). Human DCs and T cells from different patients were prepared and treated as described. For MC38 and human cancer cells treated with compounds, the CellTiter-Glo Luminescent Cell Viability Assay (Promega, G7570) was used to measure the viability.
# [4] = system: human DCs with allogeneic peripheral blood mononuclear cells; experiment: Human DCs cultured with allogeneic PBMCs, flow cytometry; type: cell-based
# Protocol: CD80 and CD86 on dendritic cells (DCs) interact with CD28 or CTLA-4 on T cells to regulate T-cell activation.
# as §3
# Flow cytometry was used to measure subcellular populations in tumors. All flow cytometry analyses were performed using either an LSR II flow cytometer (BD Biosciences) or a Northern Lights-3000 flow cytometer (Cytek) and analyzed with FlowJo (Treestar, Inc.). All flow analyses were representative of at least 3 independent experiments using […] CD proteins 4, 8, and 25 (CD4, 116003; CD8, 100707; and CD25, 102011); Foxp3 (126409); and IFN-γ (506506) flow antibodies (Biolegend). Antimouse and antihuman CTLA-4 antibodies were purchased from BioLegend (106313) and Invitrogen (46-1529-42).
# [5] = Body weight of treated hCTLA-4 mice; type: in vivo; settings: MC38-inoculated hCTLA-4 mice, treated vs control
# From the text: as §1, §2
# [6] = system: MC38 tumors; experiment: MC38 syngeneic tumors in C57BL/6 mice; type: in vivo
# Protocol: C57BL/6 mice were purchased from the Charles River Laboratories. In hCTLA-4 mice, the exons encoding for the ECD and transmembrane domains of murine CTLA-4 were replaced with the human versions. All mice were maintained at the Research Animal Facility of Baylor College of Medicine, and all studies were conducted under an animal protocol approved by the Baylor College of Medicine Institutional Animal Care and Use Committee. Mice were challenged with 0.5 million MC38 colorectal cancer cells passaged the previous day at 75% confluence. For the prophylactic model, ipilimumab or small-molecule treatment began 1 day after tumor cell inoculation. For the therapeutic model, ipilimumab or small-molecule treatment was initiated 7 to 17 days after the injection of tumor cells, depending upon when the tumors reached an average size of approximately 100 mm^3. Tumor volumes were calculated with the formula volume = (width^2 × length)/2. Measurements were recorded every 2 to 3 days. For the histologic analyses, the internal organs, including the livers, kidneys, lungs, colons, and salivary glands, were fixed in 10% paraformal-dehyde for at least 24 h, cut from paraffin blocks in […] sections using a Microm HM 315 microtome, and mounted on SuperFrost Plus slides (Roth). Slides were stained with hematoxylin and eosin (Shandon Varistain [24–4] Automatic Stainer). For the histopathologic analysis of the internal organs harvested from mice that had been treated with therapeutic compounds or control antibodies, stained sections were prepared from the formalin-fixed tissue and were assessed in a blinded fashion.
# [7] = system: tumor development; set-up: method as in PMID 35254416; settings: doses of 2 to 200 mg/kg; cited from earlier work
# [8] = system: serum cardiac troponin I type 3 (TNNI3); experiment: Serum TNNI3 in treated mice; type: in vivo; settings: marker of ipilimumab-induced irAEs
# From the text: as §1
# [9] = system: CD45+ immune cells from MC38 tumors; experiment: Single-cell RNA and TCR sequencing of CD45+ tumor immune cells; type: in vivo, hCTLA-4 mice; settings: scRNAseq of CD45+ tumor cells
# From the text: Using another cohort of hCTLA-4 mice inoculated with MC38 cells, we treated animals (n = 5 per group) with ipilimumab, anti-PD-1, anti-PD-1 plus D11, D11 alone, or vehicle in the same dosages as used previously. Some animals’ tumors were collected approximately 10 days after the last treatment dose, whereas for the remaining animals, the tumors were allowed to grow (Supplementary Fig. S7). […] Single-cell suspensions from tumors were sorted to obtain CD45^+ immune cells, which were then subjected to single-cell RNA sequencing (scRNAseq) and TCR sequencing. Next, the immune cell populations were compared across the samples (Fig. 5b, c). […]
# Tumors from CTLA-4-humanized MC38 syngeneic mice (n = 3–5 mice) were extracted for single-cell suspension using a gentleMACS Octo Dissociator (Miltenyi Biotec). […] The acquired scRNAseq reads from the 10X Genomics platform were aligned to a reference genome (mm10) using Cell Ranger (V.7.1, 10X Genomics) default parameters. The reads and cells were further filtered with Seurat (V.4.0.3) in R (V.4.1.0). […] The clonality of the TCR repertoire was calculated as a 1-Pielou index value using the formula 1+ ∑(i=1 to n) (pi*ln(pi))/ln(n), where pi is the frequency of clone i for a sample of n unique clones; this metric was normalized to the number of unique clones and ranges from 0 to 1. […]
# [10] = start at approximately 100 mm^3
# [11] = prophylactic setting, 25 mg/kg i.p.
compound,measurement,setting,value
C/C(=N/OCc1ccccc1)c1nc(-c2ccccc2)[nH]c1C [A9],promoter-mediated luminescence (blockade of CTLA-4 with CD80 and CD86),[1],resulted in promoter-mediated luminescence
same,tumor-inhibition activity in hCTLA-4 mice compared with non-humanized C57BL/6 mice,"[2]; mouse, in vivo",superior tumor-inhibition activity
same,development of MC38 tumors,[2]; [10],substantially inhibited
same,INF-γ stimulation ex vivo (MC38),"[3]; Table 3 summary, Mouse CTLA-4/CD80",Y
same,Tconv (%),"[4]; 10 μM, 6 days",43.1%
same,Treg (%),"[4]; 10 μM, 6 days",12.4%
same,Tconv (%),"[4]; 50 μM, 6 days",49.6%
same,Treg (%),"[4]; 50 μM, 6 days",20.9%
same,Tconv: Treg decrease (human cells),"[4]; Table 3 summary, Human CTLA-4/CD80",Y
same,body weight,[5],no significant weight loss
same,numbers of tumor-infiltrating Treg cells,[6]; 25 mg/kg i.p.,reduced
same,MC38 models,"[6]; Table 3 summary, Mouse or human CTLA-4/mouse CD80",Y
same,"tumor growth after rechallenge with 200,000 MC38 cells","[6]; mice that completely rejected tumors, vs control group",slower
same,animal survival,[6]; [11],prolonged animal survival
same,complete tumor rejection / complete response,[6]; [11],Four of 10
same,tumor growth,"[6]; prophylactic setting, 4 200-μg doses (25 mg/kg) i.p. every other day, start 1 day after inoculation",drastically inhibited tumor growth
same,tumor growth,"[6]; therapeutic setting, start at tumor volume approximately 100 mm^3",significantly reduced tumor growth
Cc1c(Nc2nccc3cc(CN4CC[C@@H](O)C4)cnc23)cccc1-c1cccc(-c2nc3cc(CN4CC[C@@H](C(=O)O)C4)cc(C#N)c3o2)c1C [INCB086550],tumor development,[7],inhibited tumor development
"ipilimumab: an anti-CTLA-4 antibody, first immune checkpoint blockade therapy to receive FDA approval [reference compound]",promoter-mediated luminescence (blockade of CTLA-4 with CD80 and CD86),[1],resulted in promoter-mediated luminescence
same,tumor inhibition / therapeutic efficacy,"[2]; second cohort (Fig. 5a), start at approximately 100 mm^3",inhibited tumors
same,development of MC38 tumors,[2]; [10],inhibited tumors
same,IFN-γ production,[3]; 3-μg/ml doses,substantially stimulated
same,serum TNNI3 levels,[8],elevated
same,tumor-infiltrating macrophages,[9],only moderately affected
same,Tconv (%),"[4]; 5 μg/ml, 6 days",42.7%
same,Tconv/Treg ratio,"[4]; 5 μg/ml, 6 days",3.44
same,Treg (%),"[4]; 5 μg/ml, 6 days",12.4%
